Tests used:
[1] = Highest frequency of moderate liver toxicity observed during clinical trials, expressed as a percentage. [column '% BIOL' in source]; conditions: human
[2] = Highest frequency of acute liver toxicity observed during clinical trials, expressed as a percentage. [column '% AIGUE' in source]; conditions: human
[3] = Presence of at least one case with successful reintroduction. [column 'REINT' in source]; conditions: human
[4] = Times to onset, minimal and maximal, observed in the indexed observations. [column 'DELAI' in source]; conditions: human
[5] = Proposed mechanism(s) of liver damage. [column 'MEC' in source]; conditions: human
[6] = human, serum
[7] = human, serum; remark: listed apart in the source
[8] = human
[9] = human; remark: listed apart in the source
[10] = human; remark: listed apart in the source
[11] = human, serum, 4383 h
[12] = human; remark: listed apart in the source
[13] = human; remark: listed apart in the source
[14] = human; remark: listed apart in the source
[15] = human; remark: listed apart in the source
[16] = human; remark: listed apart in the source
[17] = human; remark: listed apart in the source
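Wherever Hepatotoxicity (association with vascular disease) is given: count of indexed literature references reporting vascular liver injury in humans, e.g. peliosis hepatitis, hepatic veno-occlusive disease or Budd-Chiari syndrome.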
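Wherever Hepatotoxicity (benign tumour) is given: value is a count of indexed literature references citing a benign tumour confirmed by histopathology.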
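Wherever Hepatotoxicity (choleostasis) is given: human cholestatic liver injury, shown by histopathology or by peak ALT or AST elevation over alkaline phosphatase ratio below 2, value counts indexed literature reports.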
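Wherever Hepatotoxicity (chronic liver disease) is given: chronic liver injury confirmed by histopathology or persistently raised serum aminotransferase activity beyond 6 months, value given as the count of indexed literature references.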
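Wherever Hepatotoxicity (cirrhosis) is given: value is a count of indexed literature references reporting cirrhosis confirmed by histopathology.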
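Wherever Hepatotoxicity (cytolytic) is given: human cytolytic liver injury, shown by histopathology or by a ratio above 5 of peak ALT or AST elevation to alkaline phosphatase elevation, value counts indexed references.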
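Wherever Hepatotoxicity (granulomatous hepatitis) is given: value is a count of indexed literature references reporting granulomatous liver disease confirmed by histopathology.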
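Wherever Hepatotoxicity (malignant tumour) is given: malignant tumour confirmed by histopathology, value gives the count of indexed literature references reporting it.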
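Wherever Hepatotoxicity (severe hepatitis) is given: human clinical data: severe hepatitis, meaning potentially life-threatening liver failure or clinically observed cases, the value counts how many indexed literature references report it.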
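Wherever Hepatotoxicity (steatosis) is given: steatosis confirmed by histopathology, value is the count of indexed references.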

| Compound | Hepatotoxicity (moderate) [1] | Hepatotoxicity (acute) [2] | Hepatotoxicity (successful reintroduction) [3] | Hepatotoxicity (time to onset) [4] | Hepatotoxicity (mechanism) [5] | Hepatotoxicity (moderate) [6] | Hepatotoxicity (acute) [7] | Hepatotoxicity (cytolytic) [8] | Hepatotoxicity (choleostasis) [9] | Hepatotoxicity (severe hepatitis) [10] | Hepatotoxicity (chronic liver disease) [11] | Hepatotoxicity (cirrhosis) [12] | Hepatotoxicity (granulomatous hepatitis) [13] | Hepatotoxicity (association with vascular disease) [14] | Hepatotoxicity (steatosis) [15] | Hepatotoxicity (malignant tumour) [16] | Hepatotoxicity (benign tumour) [17] | Hepatotoxicity (moderate) ([1]; Liver) | Hepatotoxicity (acute) ([2]; Liver) | Hepatotoxicity (mechanism) ([5]; Liver) | other results |
| --- | --- | --- | --- | --- | --- | --- | --- | --- | --- | --- | --- | --- | --- | --- | --- | --- | --- | --- | --- | --- | --- |
| Nc1ccc(C(=O)O)c(O)c1 [AMINOSALICYLIC ACID] | 35.3% | 6.4% | yes | 2 weeks - 2 months | Allergic | 6 | 17 | 11 | 9 | 6 | 0 | 0 | 0 | 0 | 0 | 0 | 0 | – | – | – | – |
| O=C(O)COc1nn(Cc2ccccc2)c2ccccc12 [BENDAZAC] | – | – | yes | 3 weeks - 3.5 years | – | 0 | 6 | – | – | – | 0 | 0 | – | 0 | 0 | 0 | 0 | 0% | 0% | Allergic | Hepatotoxicity (cytolytic) ([8]; Liver): 3; Hepatotoxicity (choleostasis) ([9]; Liver): 2; Hepatotoxicity (severe hepatitis) ([10]; Liver): 0; Hepatotoxicity (granulomatous hepatitis) ([13]; Liver): 0 |
| CC(C)N(CCC(C(N)=O)(c1ccccc1)c1ccccn1)C(C)C (stereo not given) [DISOPYRAMIDE] | 0.3% | 0.1% | yes | 2 weeks - 1 year | Allergic | 1 | 14 | 6 | 10 | 0 | 1 | 0 | 0 | 0 | 0 | 0 | 0 | – | – | – | – |
| COC(=O)[C@H](c1ccccc1Cl)N1CCc2sccc2C1 [CLOPIDOGREL] | – | – | yes | 4 days - 5.5 months | – | 2 | 5 | – | – | – | 0 | 0 | – | 0 | 0 | 0 | 0 | 3% | 0% | Allergic | Hepatotoxicity (cytolytic) ([8]; Liver): 4; Hepatotoxicity (choleostasis) ([9]; Liver): 1; Hepatotoxicity (severe hepatitis) ([10]; Liver): 0; Hepatotoxicity (granulomatous hepatitis) ([13]; Liver): 0 |
| O=C(O)c1cccnc1Nc1cccc(C(F)(F)F)c1 [NIFLUMIC ACID] | 0% | 0% | yes | 3 days - 3.5 weeks | Allergic | 0 | 4 | 4 | 1 | 2 | 0 | 0 | 0 | 0 | 0 | 0 | 0 | – | – | – | – |
| CC(C)NNC(=O)COc1ccc(Cl)cc1 [IPROCLOZIDE] | 0% | 0% | yes | 1 week - 1 month | Toxic Metabolite | 0 | 3 | 3 | 1 | 2 | 0 | 0 | 0 | 0 | 0 | 0 | 0 | – | – | – | – |
| CCC1NC(=O)c2cc(S(N)(=O)=O)c(Cl)cc2N1 (stereo not given) [QUINETHAZONE] | 0% | 0% | yes | 2 months | Allergic | 0 | 1 | 0 | 1 | 0 | 0 | 0 | 0 | 0 | 0 | 0 | 0 | – | – | – | – |
| OC(Cn1cncn1)(Cn1cncn1)c1ccc(F)cc1F [FLUCONAZOLE] | – | – | yes | 2 days - 10 months | – | 84 | 25 | – | – | – | 0 | 0 | – | 0 | 1 | 0 | 0 | 83.3% | 6.3% | Dose-dependant | Hepatotoxicity (cytolytic) ([8]; Liver): 15; Hepatotoxicity (choleostasis) ([9]; Liver): 13; Hepatotoxicity (severe hepatitis) ([10]; Liver): 7; Hepatotoxicity (granulomatous hepatitis) ([13]; Liver): 1 |
| CCCC(C)C1(CC)C(=O)NC(=S)NC1=O (stereo not given) [THIOPENTAL] | 87% | 0% | yes | 1 day - 5 days | Dose-dependant | 4 | 2 | 1 | 0 | 0 | 0 | 0 | 0 | 0 | 1 | 0 | 0 | – | – | – | – |
| Cc1ncc(CO)c(CO)c1O [PYRIDOXINE] | – | – | yes | 2 months | – | 2 | 1 | – | – | – | 0 | 0 | – | 0 | 0 | 0 | 0 | 6% | 0% | Dose-dependant | Hepatotoxicity (cytolytic) ([8]; Liver): 1; Hepatotoxicity (choleostasis) ([9]; Liver): 0; Hepatotoxicity (severe hepatitis) ([10]; Liver): 0; Hepatotoxicity (granulomatous hepatitis) ([13]; Liver): 0 |

Source: ChEMBL document CHEMBL3137667, “[Drug-induced liver injury; fourteenth updated edition of the bibliographic database of liver injuries and related drugs]” (Gastroenterol Clin Biol, 2004)
